Entries after “also recorded” stand apart in the source; their conditions may differ.
Assays:
Format in all cases: cell-based
HIV-1 (NL4-3/Balenv) [1] = test: HIV-1 infection assay on iMDDCs (p24 in supernatant); conditions: IM-MDDCs, NL4-3balenv 2 h, culture up to 9 days
Protocol: (§1) FIG. 7 is bar graphs showing that selected site A and site B inhibitors decrease HIV-1 binding and infection of IM-MDDCs. Upper panel: IM-MDDCs were treated with two chemical inhibitors directed against site A (A1 and A4) and two inhibitors directed against site B (B1 and B2) (or DMSO) for 10 min at 37° C. Next, cells were pulsed with NL4-3balenv for 60 min at 37° C. and rinsed extensively before measuring p24 content. Lower panel: In some experiments, similarly treated IM-MDDCs were pulsed with NL4-3balenv for 2 h at 37° C., rinsed extensively, and maintained in complete culture medium supplemented with GM-CSF and IL-4 for up to 9 days with medium replenishment every 3 days. Cell-free culture supernatants were quantified by measuring p24 content. Data shown correspond to the means±SEM of 3 independent experiments performed in triplicate. The asterisks denotes statistically significant data (*, P<0.05; **, P<0.01; ***, P<0.001).
(§2) For assessing binding/entry, iMDDCs (3×10^5 cells in a final volume of 300 μl) were pre-treated with 10 μM of different chemical inhibitors for 10 min and exposed to NL4-3/Balenv (30 ng of p24) for 60 min at 37° C. After three washes with PBS, cells were re-suspended in PBS containing 1% BSA. The p24 content was determined by ELISA, while susceptibility of iMDDCs to HIV-1 infection was assessed by initially exposing 3×10^5 cells to NL4-3/Balenv (30 ng) at 37° C. for 2 h. After three washes with PBS, cells were maintained in complete RPMI 1640 supplemented with GM-CSF and IL-4 in 96-well plates, in a final volume of 200 μl. Every 3 days and for a 9-day period, half of the conditioned medium was collected and kept at −20° C. until assayed. Virus production was estimated as above by measuring p24 levels by ELISA.

DC-SIGN = target: T1, DC-SIGN (Homo sapiens, UniProt Q9NNX6); test: HIV-1 binding to Raji-DC-SIGN cells (p24); conditions: NL4-3 60 min
T1 construct: expressed in transfected cells; host or cells: Raji cells stably transfected with a DC-SIGN plasmid
T1 sequence (Q9NNX6 1-404): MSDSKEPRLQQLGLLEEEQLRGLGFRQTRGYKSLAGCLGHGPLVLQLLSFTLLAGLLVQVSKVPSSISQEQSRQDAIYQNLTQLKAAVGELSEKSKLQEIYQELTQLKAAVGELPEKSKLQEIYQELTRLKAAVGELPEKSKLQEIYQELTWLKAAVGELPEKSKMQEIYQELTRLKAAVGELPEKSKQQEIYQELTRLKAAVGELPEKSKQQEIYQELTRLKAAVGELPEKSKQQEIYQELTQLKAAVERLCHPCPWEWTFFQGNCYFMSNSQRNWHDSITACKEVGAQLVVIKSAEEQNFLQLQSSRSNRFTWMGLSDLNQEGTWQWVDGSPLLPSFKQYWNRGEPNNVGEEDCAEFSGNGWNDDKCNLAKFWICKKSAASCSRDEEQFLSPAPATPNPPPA
Protocol: Raji-DC-SIGN cells were treated for 10 min at 37° C. with inhibitors A1 and A4 directed against the site A and B1 and B2 directed against the site B, or with DMSO. Afterwards, cells were pulsed with NL4-3 for 60 min, rinsed thrice with PBS were made to remove unadsorbed virus, and cell-associated viruses were quantified by measuring p24 content. Data shown correspond to the means±SEM of 3 independent experiments performed in triplicate.
(§3) Where indicated, 1×10^6 parental Raji-CD4 cells (DCIR-negative), Raji-CD4-DCIR or Raji-DC-SIGN transfectants were pre-treated with the indicated amount of a chemical inhibitor for 10 min. Cells were then pulsed with NL4-3 (an equivalent of 100 ng of p24) for 60 min at 37° C. The virus-cell mixture was then washed three times with PBS to remove unbound virus and re-suspended in PBS containing 1% BSA. Binding/entry was then determined by the p24 content by ELISA as above. For the infection assay, Raji-CD4 and Raji-CD4-DCIR (1×10^6 cells) were exposed to NL4-3 viral stock (100 ng of p24) for 2 h at 37° C. After three washes with PBS to remove excess virus, cells were maintained in culture for up to 9 days. Cell-free culture supernatants were collected at the indicated time points and assayed for p24 content.

HIV-1 (NL4-3) = test: HIV-1 infection assay on Raji-CD4 and Raji-CD4-DCIR cells (p24 in supernatant); conditions: Raji-CD4 vs Raji-CD4-DCIR, NL4-3 2 h, culture 3 d
Protocol: FIG. 5 is a bar graph showing that specific inhibitors against the site A (A1, A4) and site B (B1, B2) decrease infectivity of Raji-CD4-DCIR. Raji-CD4 and Raji-CD4-DCIR were treated with the inhibitors selected following experiments described in FIG. 4, or DMSO. Cells were then exposed to NL4-3 for 2 h, rinsed and maintained in culture for 3d. Cell-free culture supernatants were collected and assayed for p24 content. Data shown correspond to the means±SEM from 3 independent experiments performed with triplicate samples. The asterisk (*) denotes statistically significant data (*, P<0.05, ** P<0.01, *** P<0.001).
as §3

DCIR = target: T2, DCIR (Homo sapiens, UniProt Q9UMR7); test: HIV-1 binding/entry assay on Raji-CD4-DCIR cells (cell-associated p24); conditions: 10 μM pre-treatment 10 min; NL4-3 60 min; p24 content
T2 construct: expressed in transfected cells; host or cells: Raji-CD4 (human B cell line stably expressing human CD4), retroviral transduction
T2 sequence (Q9UMR7 1-237): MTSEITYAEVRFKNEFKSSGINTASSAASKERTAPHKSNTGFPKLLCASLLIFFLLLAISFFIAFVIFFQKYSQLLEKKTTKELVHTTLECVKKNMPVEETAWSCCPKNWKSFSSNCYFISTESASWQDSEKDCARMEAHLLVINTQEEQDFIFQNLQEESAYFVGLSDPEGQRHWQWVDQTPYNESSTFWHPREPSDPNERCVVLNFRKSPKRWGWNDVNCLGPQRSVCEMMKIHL
Protocol: FIG. 4 is a bar graph showing that inhibitors decrease HIV-1 binding on DCIR. Raji-CD4-DCIR cells were treated with 10 μM of four site A inhibitors (A1, A2, A3 and A4) and three site B inhibitors (B1, B2 and B3) (or with vehicle (DMSO) only) for 10 min at 37° C. Thereafter, cells were pulsed with NL4-3 for 60 min. After three washes with PBS to remove unadsorbed virus, the abundance of cell-associated viruses was quantified by measuring p24 content. Data shown correspond to the means±SEM of three independent experiments performed with triplicate samples. The asterisk (*) denotes statistically significant data (*, P<0.05, ** P<0.01, *** P<0.001).
as §3

HIV-1 (NL4-3/Balenv) [2] = test: HIV-1 binding assay on iMDDCs (p24); conditions: IM-MDDCs, 10 μM pre-incubation 10 min, NL4-3balenv 60 min
Protocol: as §1, §2

SMILES	productive infection of DCs (HIV-1 (NL4-3/Balenv) [1])	HIV-1 binding to DC-SIGN (DC-SIGN)	HIV-1 production (HIV-1 (NL4-3))	HIV-1 attachment to Raji-CD4-DCIR cells (DCIR)	HIV-1 binding to DCs (HIV-1 (NL4-3/Balenv) [2])
O=C(/C=C/C=C/c1ccccc1)c1ccccc1 [Compound A1, 1,5-diphenyl-2,4-pentadien-1-one]	blocked productive infection	do not block HIV-1 attachment to DC-SIGN	decreased HIV-1 production only in DCIR-expressing cells	statistically significant decrease; also recorded: proved active against HIV-1 binding	decreased significantly
O=C(c1ccccc1)c1cc2ccccc2o1 [Compound B1, 1-benzofuran-2-yl(phenyl)methanone]	blocked productive infection	do not block HIV-1 attachment to DC-SIGN	decreased HIV-1 production only in DCIR-expressing cells	statistically significant decrease; also recorded: proved active against HIV-1 binding	decreased significantly
Cc1ccc(/N=[N+](\[O-])c2ccc(C)cc2)cc1 [Compound B2, 1-methyl-4-[(4-methylphenyl)-NNO-azoxy]benzene]	blocked productive infection	do not block HIV-1 attachment to DC-SIGN	decreased HIV-1 production only in DCIR-expressing cells	statistically significant decrease	decreased significantly
